US20030220406A1, “Solutizing agents” (priority 2000, published 2003)

Assay: Solubilizing power: test substances added to 10 g of solubilizer until the solubility limit was reached
Assay type: physicochemical
Description: Example 1 corresponds to the invention, Examples C1 and C2 are intended for comparison.

[1] = in comparison solubilizer C1 (PEG-40 Hydrogenated Castor Oil 100 % by weight)
[2] = in comparison solubilizer C2 (Cocoeth-8 100 % by weight)
[3] = in solubilizer of Example 1 (Cocoeth-8 40, PPG1-PEG9 Lauryl Glycol Ether 30, PEG-40 Hydrogenated Castor Oil 20, Water 10 % by weight)

Molecule	Solubility [1] [g/10 g solubilizer]	Solubility [2] [g/10 g solubilizer]	Solubility [3] [g/10 g solubilizer]
Cc1ccc(C=C2C(=O)C3(C)CCC2C3(C)C)cc1 (stereo not drawn) [4-Methylbenzylidene Camphor]	0.50	0.38	1.10
COc1ccc(C(=O)c2ccccc2)c(O)c1 [Benzophenone-3]	0.40	0.20	0.44
COc1ccc(/C=C/C(=O)OCCC(C)C)cc1 [Isoamyl Methoxycinnamate]	0.60	0.70	1.10

Now from value to molecule:

Solubility [1] [g/10 g solubilizer]	Solubility [2] [g/10 g solubilizer]	Solubility [3] [g/10 g solubilizer]	Molecule
1.10	1.05	4.80	CC1CCC(C(C)C)C(O)C1 (stereo not drawn) [Menthol]
0.45	0.60	1.60	CCCCC(CC)COC(=O)C=Cc1ccc(OC)cc1 (stereo not drawn) [Octyl Methoxycinnamate]
0.40	0.50	0.90	Tocopherol
